Where two headings read alike, the source gives them in different places.

One assay deals with AChE. The following applies: cited from earlier work.
Assay [1] relates to BACE1. The following applies: cited from earlier work.
The next assay deals with BuChE. The following applies: cited from earlier work.
The target of assay [2] is T1, AChE from Electrophorus electricus (electric eel) (Electrophorus electricus, UniProt O42275).
T1 construct: purchased Sigma-Aldrich C3389
The assay can be described thus: biochemical. The note with it: mean ± SD of three independent experiments.

Assay [3] deals with T2, BACE1 (Homo sapiens, UniProt P56817).
T2 construct: purchased Sigma-Aldrich CS0010
T2 sequence (P56817 46-457 limits assumed): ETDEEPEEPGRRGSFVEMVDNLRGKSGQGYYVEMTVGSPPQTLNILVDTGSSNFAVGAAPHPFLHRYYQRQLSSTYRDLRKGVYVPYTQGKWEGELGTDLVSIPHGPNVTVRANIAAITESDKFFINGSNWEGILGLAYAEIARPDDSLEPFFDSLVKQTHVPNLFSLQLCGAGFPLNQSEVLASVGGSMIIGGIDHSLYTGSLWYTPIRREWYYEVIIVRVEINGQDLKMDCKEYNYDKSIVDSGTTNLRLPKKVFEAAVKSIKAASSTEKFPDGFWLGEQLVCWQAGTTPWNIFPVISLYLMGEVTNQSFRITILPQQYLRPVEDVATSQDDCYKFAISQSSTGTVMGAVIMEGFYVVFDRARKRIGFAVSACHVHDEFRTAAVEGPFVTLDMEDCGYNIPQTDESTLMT
Put plainly: In vitro β-secretase (BACE1) activity assay kit (fluorescence). In kind it is biochemical, equine.

A further assay relates to human AChE. The note with it: cited from earlier work.
The subject of the next assay is BACE-1. The note with it: cited from earlier work.
The target in another assay is hBuChE. Also noted: method as in PMID 23041347. The note with it: cited from earlier work.

T1 sequence (O42275 24-633): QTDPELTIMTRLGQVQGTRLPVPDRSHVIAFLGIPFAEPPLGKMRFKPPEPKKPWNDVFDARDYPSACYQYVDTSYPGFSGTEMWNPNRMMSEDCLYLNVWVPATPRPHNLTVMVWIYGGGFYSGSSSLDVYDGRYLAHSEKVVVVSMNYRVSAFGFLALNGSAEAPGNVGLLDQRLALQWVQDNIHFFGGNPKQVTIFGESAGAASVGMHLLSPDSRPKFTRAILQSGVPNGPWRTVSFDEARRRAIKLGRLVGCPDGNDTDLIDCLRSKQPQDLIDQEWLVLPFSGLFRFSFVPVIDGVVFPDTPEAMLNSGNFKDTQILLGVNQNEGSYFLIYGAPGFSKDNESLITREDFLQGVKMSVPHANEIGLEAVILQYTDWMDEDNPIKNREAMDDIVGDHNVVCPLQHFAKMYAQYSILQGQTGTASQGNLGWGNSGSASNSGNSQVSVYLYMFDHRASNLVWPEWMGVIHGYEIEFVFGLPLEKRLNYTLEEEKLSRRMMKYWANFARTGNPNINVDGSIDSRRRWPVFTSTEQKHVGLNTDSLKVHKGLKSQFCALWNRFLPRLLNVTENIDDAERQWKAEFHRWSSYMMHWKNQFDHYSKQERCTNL

Take `CN(C)CCOc1ccc(NC(=O)c2ccccn2)cc1` [Compound V]: the IC50 with AChE (read-out: AChE inhibitory activity IC50) is 2490 ± 190 nM.
Regarding `C[C@@H](NC(=O)c1cccc(C(=O)N[C@@H](c2ccccc2)[C@H](O)CNCCC2CCN(Cc3ccccc3)CC2)c1)c1ccccc1` [Derivative VII], the IC50 is 570 nM in the assay with BACE1 [1] and 1830 nM in the assay on AChE (read-out: AChE IC50).
In the case of `CCN(CC)Cc1ccccc1CNC(=O)c1cccc(CC(=O)c2ccc(F)cc2)c1` [III], the IC50 with BuChE (read-out: BChE IC50) was 0.08 nM.
For the compound `CCN(CC)Cc1ccccc1CNC(=O)c1cc(C)cc(CC(=O)c2ccc(F)cc2)c1` [IV], the IC50 in the assay on BuChE (read-out: BChE IC50) was 0.039 nM.
For the compound `COc1cc(C(=O)Nc2cccc(NC(=O)c3cc(OC)c(OC)c(OC)c3)c2)cc(OC)c1OC` [JW1, N,N′-(1,3-phenylene)bis(3,4,5-trimethoxybenzamide)], the IC50 came to 770 ± 18 nM in assay [2] and 54400 ± 1300 nM against BACE1 [3].
As for `COc1cc(OC)cc(C(=O)Nc2cccc(NC(=O)c3cc(OC)cc(OC)c3)c2)c1` [JW2, N,N′-(1,3-phenylene)bis(3,5-dimethoxybenzamide)], the IC50 in assay [2] was 2570 ± 63 nM; against BACE1 [3], 74000 ± 1610 nM.
For the compound `COc1ccc(C(=O)Nc2cccc(NC(=O)c3ccc(OC)c(OC)c3)c2)cc1OC` [JW3, N,N′-(1,3-phenylene)bis(3,4-dimethoxybenzamide)], the IC50 was 410 ± 28 nM in assay [2] and 40200 ± 8120 nM on BACE1 [3].
The corresponding values for `COc1cccc(C(=O)Nc2cccc(NC(=O)c3cccc(OC)c3)c2)c1` [JW4, N,N′-(1,3-phenylene)bis(3-methoxybenzamide)] are 1200 ± 13 nM and 81400 ± 4110 nM.
Regarding `COc1cc(C(=O)Nc2ccc(NC(=O)c3cc(OC)c(OC)c(OC)c3)cc2)cc(OC)c1OC` [JW5, N,N′-(1,4-phenylene)bis(3,4,5-trimethoxybenzamide)], the IC50 in assay [2] was 68 ± 58 nM; against BACE1 [3], 9290 ± 3020 nM.
For the compound `COc1cc(OC)cc(C(=O)Nc2ccc(NC(=O)c3cc(OC)cc(OC)c3)cc2)c1` [JW6, N,N′-(1,4-phenylene)bis(3,5-dimethoxybenzamide)], the IC50 came out at 190 ± 33 nM in assay [2] and 16700 ± 250 nM on BACE1 [3].
With `COc1ccc(C(=O)Nc2ccc(NC(=O)c3ccc(OC)c(OC)c3)cc2)cc1OC` [JW7, N,N′-(1,4-phenylene)bis(3,4-dimethoxybenzamide)], the values for the IC50 (in assay [2]; against BACE1 [3]) were 70 ± 3 nM and 12800 ± 230 nM, respectively.
Taken in the same sequence, the figures for `COc1cccc(C(=O)Nc2ccc(NC(=O)c3cccc(OC)c3)cc2)c1` [JW8, N,N′-(1,4-phenylene)bis(3-methoxybenzamide)] were 56 ± 43 nM and 9010 ± 280 nM.
The corresponding values for `COc1cc(C(=O)Nc2cccc([N+](=O)[O-])c2)cc(OC)c1OC` [MB1, 3,4,5-trimethoxy-N-(3-nitrophenyl)benzamide] are 670 ± 8 nM and 40500 ± 2200 nM.
With `COc1cc(NC(=O)c2cc(OC)c(OC)c(OC)c2)cc(OC)c1OC` [MB3, 3,4,5-trimethoxy-N-(3,4,5-trimethoxyphenyl)benzamide], the IC50 was 110 ± 78 nM in assay [2] and 20200 ± 5130 nM at BACE1 [3].
Taken in the same sequence, the figures for `COc1cc(CNC(=O)c2cc(OC)c(OC)c(OC)c2)cc(OC)c1OC` [MB4, 3,4,5-trimethoxy-N-(3,4,5-trimethoxybenzyl)benzamide] were 1170 ± 15 nM and 87700 ± 6220 nM.
In the case of `O=C(NCCCCCCCCCCNc1c2c(nc3ccccc13)CCCC2)c1cc(=O)c2cc(O)ccc2o1` [Molecule VIII], the IC50 in the assay with human AChE (human AChE, read-out: IC50 for AChE) is 8 nM; in the assay on BACE-1 (read-out: IC50 for BACE-1), 2800 nM.
For `OC(CNCc1cccc(COc2ccccc2)c1)Cn1cc(Br)c2cc(Br)ccc21` (centres unmarked) [compound IX], the IC50 with BACE1 [1] (read-out: BACE-1 IC50) is 2500 nM; in the assay with AChE (read-out: AChE IC50), 9100 nM.
Turning to `COc1ccc(C(=O)N(Cc2ccc(Cl)cc2)c2cccc(Br)c2)cc1OC` [compound I], the values for the IC50 in the assay on AChE (read-out: AChE IC50) and with BuChE (read-out: BuChE IC50) were 1570 nM and 2850 nM, respectively.
Turning to `O=C(NCc1cc(Cl)cc(Cl)c1)c1cc(Br)ccc1O` [compound VI], the IC50 with AChE (read-out: inhibitory potency of AChE activity) was 33100 ± 470 nM.
With `CC(=O)c1ccccc1NC(=O)c1ccc(OCCCCC[n+]2ccccc2)cc1` [compound XI], the Ki (as a rule, the dissociation constant of the complex between target and ligand, obtained from inhibition or displacement) at human AChE (read-out: hAChE Ki) was 81 nM; at hBuChE, 93 nM. Moreover, in the assay on BACE1 [1], the IC50 was 310 nM.
For `COc1ccc(CNC(=O)C2CCN(C(=O)c3ccccc3)CC2)cc1OC` [compound X], the IC50 with human AChE (in humans, read-out: AChE IC50) was 4.11 nM; with BACE-1 (in humans, read-out: BACE-1 IC50), 18.3 nM.
Regarding `COc1ccc(C(=O)Nc2nc(CN(C)Cc3ccccc3)cs2)cc1` [substance II], the IC50 with AChE (read-out: AChE IC50) was 1470 nM; in the assay with BuChE (read-out: BuChE IC50), 11400 nM.
